In the supplement of paper PMC10307832:

What was measured:
Assay in all cases: relative viability (nuclei count vs DMSO), 5 days (fraction); higher = more cells survive
201T = system: 201T
Procedure, shortened: (§1)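 Dosing by pin tool came one day after lung cancer cell lines were seeded in 1536-well plates, using either one drug or a fixed anchor-drug dose plus five library-drug doses (not always all listed) in √10 steps. After 5 days, nuclei were counted on 4× images. Relative viability is treated-well nuclei count divided by vehicle-well nuclei count, and values are medians of duplicate plates.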

BEN = system: BEN
Procedure, shortened: as §1

CAL-12T = system: CAL-12T
Procedure, shortened: as §1

COR-L 105 = system: COR-L 105
Procedure, shortened: as §1

EKVX = system: EKVX
Procedure, shortened: as §1

HARA = system: HARA
Procedure, shortened: as §1

HCC-366 = system: HCC-366
Procedure, shortened: as §1

LK-2 = system: LK-2
Procedure, shortened: as §1

LOU-NH91 = system: LOU-NH91
Procedure, shortened: as §1

NCI-H1437 = system: NCI-H1437
Procedure, shortened: as §1

NCI-H1650 = system: NCI-H1650
Procedure, shortened: as §1

NCI-H1666 = system: NCI-H1666
Procedure, shortened: as §1

NCI-H2009 = system: NCI-H2009
Procedure, shortened: as §1

NCI-H2170 = system: NCI-H2170
Procedure, shortened: as §1

NCI-H3122 = system: NCI-H3122
Procedure, shortened: as §1

NCI-H441 = system: NCI-H441
Procedure, shortened: as §1

NCI-H460 = system: NCI-H460
Procedure, shortened: as §1

NCI-H661 = system: NCI-H661
Procedure, shortened: as §1

NCI-H727 = system: NCI-H727
Procedure, shortened: as §1

PC-14 = system: PC-14
Procedure, shortened: as §1

SW 900 = system: SW 900
Procedure, shortened: as §1

COc1cc2nccc(Oc3ccc(NC(=O)Nc4cc(C)on4)c(Cl)c3)c2cc1OC [Tivozanib] + CC(=O)Nc1cccc(-n2c(=O)n(C3CC3)c(=O)c3c(Nc4ccc(I)cc4F)n(C)c(=O)c(C)c32)c1 [Trametinib] (partner 0.02 µM)
relative viability (201T; first compound 0.005 µM): 0.691
relative viability (201T; first compound 0.01581 µM): 0.759
relative viability (201T; first compound 0.05 µM): 0.681
relative viability (201T; first compound 0.1581 µM): 0.717
relative viability (201T; first compound 0.5 µM): 0.784
relative viability (BEN; first compound 0.005 µM): 1.13
relative viability (BEN; first compound 0.01581 µM): 1.1
relative viability (BEN; first compound 0.05 µM): 0.961
relative viability (BEN; first compound 0.1581 µM): 0.903
relative viability (BEN; first compound 0.5 µM): 1
relative viability (CAL-12T; first compound 0.005 µM): 0.297
relative viability (CAL-12T; first compound 0.01581 µM): 0.356
relative viability (CAL-12T; first compound 0.05 µM): 0.414
relative viability (CAL-12T; first compound 0.1581 µM): 0.235
relative viability (CAL-12T; first compound 0.5 µM): 0.408
relative viability (COR-L 105; first compound 0.005 µM): 0.417
relative viability (COR-L 105; first compound 0.01581 µM): 0.451
relative viability (COR-L 105; first compound 0.05 µM): 0.454
relative viability (COR-L 105; first compound 0.1581 µM): 0.482
relative viability (COR-L 105; first compound 0.5 µM): 0.494
relative viability (EKVX; first compound 0.005 µM): 0.32
relative viability (EKVX; first compound 0.01581 µM): 0.467
relative viability (EKVX; first compound 0.05 µM): 0.477
relative viability (EKVX; first compound 0.1581 µM): 0.292
relative viability (EKVX; first compound 0.5 µM): 0.345
relative viability (HARA; first compound 0.005 µM): 0.628
relative viability (HARA; first compound 0.01581 µM): 0.817
relative viability (HARA; first compound 0.05 µM): 0.615
relative viability (HARA; first compound 0.1581 µM): 1.06
relative viability (HARA; first compound 0.5 µM): 0.744
relative viability (HCC-366; first compound 0.005 µM): 0.363
relative viability (HCC-366; first compound 0.01581 µM): 0.349
relative viability (HCC-366; first compound 0.05 µM): 0.341
relative viability (HCC-366; first compound 0.1581 µM): 0.323
relative viability (HCC-366; first compound 0.5 µM): 0.426
relative viability (LK-2; first compound 0.005 µM): 0.933
relative viability (LK-2; first compound 0.01581 µM): 0.534
relative viability (LK-2; first compound 0.05 µM): 0.622
relative viability (LK-2; first compound 0.1581 µM): 0.85
relative viability (LK-2; first compound 0.5 µM): 0.773
relative viability (LOU-NH91; first compound 0.005 µM): 0.736
relative viability (LOU-NH91; first compound 0.01581 µM): 0.805
relative viability (LOU-NH91; first compound 0.05 µM): 0.784
relative viability (LOU-NH91; first compound 0.1581 µM): 0.744
relative viability (LOU-NH91; first compound 0.5 µM): 0.767
relative viability (NCI-H1437; first compound 0.005 µM): 0.567
relative viability (NCI-H1437; first compound 0.01581 µM): 0.535
relative viability (NCI-H1437; first compound 0.05 µM): 0.592
relative viability (NCI-H1437; first compound 0.1581 µM): 0.49
relative viability (NCI-H1437; first compound 0.5 µM): 0.522
relative viability (NCI-H1650; first compound 0.005 µM): 0.592
relative viability (NCI-H1650; first compound 0.01581 µM): 0.582
relative viability (NCI-H1650; first compound 0.05 µM): 0.584
relative viability (NCI-H1650; first compound 0.1581 µM): 0.545
relative viability (NCI-H1650; first compound 0.5 µM): 0.547
relative viability (NCI-H1666; first compound 0.005 µM): 0.839
relative viability (NCI-H1666; first compound 0.01581 µM): 0.78
relative viability (NCI-H1666; first compound 0.05 µM): 0.977
relative viability (NCI-H1666; first compound 0.1581 µM): 0.922
relative viability (NCI-H1666; first compound 0.5 µM): 0.862
relative viability (NCI-H2009; first compound 0.005 µM): 0.269
relative viability (NCI-H2009; first compound 0.01581 µM): 0.323
relative viability (NCI-H2009; first compound 0.05 µM): 0.295
relative viability (NCI-H2009; first compound 0.1581 µM): 0.204
relative viability (NCI-H2009; first compound 0.5 µM): 0.339
relative viability (NCI-H2170; first compound 0.005 µM): 0.827
relative viability (NCI-H2170; first compound 0.01581 µM): 0.92
relative viability (NCI-H2170; first compound 0.05 µM): 0.893
relative viability (NCI-H2170; first compound 0.5 µM): 0.983
relative viability (NCI-H3122; first compound 0.005 µM): 0.197
relative viability (NCI-H3122; first compound 0.01581 µM): 0.213
relative viability (NCI-H3122; first compound 0.05 µM): 0.229
relative viability (NCI-H3122; first compound 0.1581 µM): 0.235
relative viability (NCI-H3122; first compound 0.5 µM): 0.321
relative viability (NCI-H441; first compound 0.005 µM): 0.405
relative viability (NCI-H441; first compound 0.01581 µM): 0.489
relative viability (NCI-H441; first compound 0.05 µM): 0.551
relative viability (NCI-H441; first compound 0.1581 µM): 0.367
relative viability (NCI-H441; first compound 0.5 µM): 0.433
relative viability (NCI-H460; first compound 0.005 µM): 0.13
relative viability (NCI-H460; first compound 0.01581 µM): 0.192
relative viability (NCI-H460; first compound 0.05 µM): 0.254
relative viability (NCI-H460; first compound 0.1581 µM): 0.13
relative viability (NCI-H460; first compound 0.5 µM): 0.236
relative viability (NCI-H661; first compound 0.005 µM): 0.588
relative viability (NCI-H661; first compound 0.01581 µM): 0.562
relative viability (NCI-H661; first compound 0.05 µM): 0.618
relative viability (NCI-H661; first compound 0.1581 µM): 0.522
relative viability (NCI-H661; first compound 0.5 µM): 0.641
relative viability (NCI-H727; first compound 0.005 µM): 0.385
relative viability (NCI-H727; first compound 0.01581 µM): 0.419
relative viability (NCI-H727; first compound 0.05 µM): 0.366
relative viability (NCI-H727; first compound 0.1581 µM): 0.38
relative viability (NCI-H727; first compound 0.5 µM): 0.398
relative viability (PC-14; first compound 0.005 µM): 0.654
relative viability (PC-14; first compound 0.01581 µM): 0.766
relative viability (PC-14; first compound 0.05 µM): 0.844
relative viability (PC-14; first compound 0.1581 µM): 0.84
relative viability (PC-14; first compound 0.5 µM): 0.751
relative viability (SW 900; first compound 0.005 µM): 0.692
relative viability (SW 900; first compound 0.01581 µM): 1.18
relative viability (SW 900; first compound 0.05 µM): 1.04
relative viability (SW 900; first compound 0.5 µM): 0.829
